Measured values taken from publication PMC9953095, “Design, Synthesis and Biological Evaluation of Quinazolinamine Derivatives as Breast Cancer Resistance Protein and P-Glycoprotein Inhibitors with Improved Metabolic Stability” (Biomolecules, 2023).
Where “and” joins values, the source holds several entries; their conditions need not be identical. Equal values may be shown once. Read-outs that look alike come from different tables or passages of the source. One block for each compound: values may come before it.

Tests used:
[1] = Metabolic stability with human liver microsomes; type: in vitro ADME; conditions: after 1 h of incubation with human liver microsomes, 37 °C, NADPH; also: tested at 200 µM
Procedure: Human liver microsome (20 mg/mL) 6.25 µL, nicotinamide adenine dinucleotide phosphate (NADPH) (0.75 µmol), MgCl2 (0.75 µmol), and the test compound (0.05 µmol) were added into a potassium phosphate buffer (pH 7.4) with 250 µL of final volume. The incubation was carried out aerobically at 37 °C. The mixture was pre-incubated without NADPH for 10 min at 37 °C and NADPH was added to start the reaction. At 1 h after the start of the reaction, an aliquot (50 µL) of the incubation mixture was taken from each incubation and mixed with 150 µL of ice-cold acetonitrile to terminate the reaction. Subsequently, the sample was centrifuged (12,000 rpm) at room temperature. The resulting supernatant was filtered and analyzed using HPLC (LC, Agilent 1200; column, HC-C18(2); column temperature, 25 °C; mobile phase, solvent A, methanol, solvent B, water; gradient elution, 30–99% solvent A; flow rate, 1 mL/min; UV signals were recorded at 254 nm).

[2] = system: P-gp-mediated multidrug-resistant cell line KB-C2; test: cells; conditions: Homo sapiens, KB-C2, read-out: IC50 value of colchicine
Procedure: (§1) The human lung cancer cell line H460, and its MX-selected derivative BCRP-overexpressing cell line, H460/MX20, were used in this study. The KB-C2 cell line was selected by colchicine (Alfa Aesar, Haverhill, MA, USA) (2 μg/mL) with human cervical carcinoma cell line KB-3-1.
(§2) Cytotoxicity tests and reversal experiments were performed using the 3-(4,5-dimethylthiazol-2-yl)-2,5-diphenyltetrazolium bromide (MTT) colorimetric assay. Cells were seeded evenly into 96-well plates. […] To determine the MDR reversal efficacy of the quinazolinamine derivatives, an anticancer drug (mitoxantrone, colchicine, paclitaxel or cisplatin) was added into the designated wells after 2 h pre-incubation with a quinazolinamine derivative or a positive control inhibitor at non-toxic concentrations. After 72 h of drug incubation, the MTT reagent (4 mg/mL) was added into the wells, and then the plates were incubated for an additional 4 h. Subsequently, the supernatant was discarded and 100 µL of dimethyl sulfoxide (DMSO) was added to dissolve the formazan crystals. Cell viability was determined by measuring the absorbance by using an accuSkan™ GO UV/Vis Microplate Spectrophotometer (Fisher Sci., Fair Lawn, NJ, USA) at a wavelength of 570 nm.

[3] = system: BCRP localization in H460/MX20 cells; test: Immunofluorescence assay of BCRP localization in H460/MX20 cells; type: cell-based, human; conditions: 5 μM for 24, 48, and 72 h, Figure 8A,C
Procedure: For immunofluorescence analysis, parental and drug-resistant cells were seeded in 24-well plates at 10,000–20,000 cells/well and incubated for 24 h. The cells were incubated with or without cyclopropyl quinazolinamine 22 or azide quinazolinamine 33 for 24 h, 48 h, and 72 h. Thereafter, cells were washed with PBS and fixed with 4% paraformaldehyde for 10 min at room temperature and then rinsed with PBS twice, followed by permeabilization with 1% Triton X-100 for 10 min at 4 °C. The cells were again washed twice with PBS, and then blocked with 6% BSA for 1 h at 37 °C. Fixed cells were incubated with monoclonal antibody against the BCRP protein (BXP 21) (Sigma-Aldrich, Inc., St. Louis, MO) (1:1000) or P-gp (F4) (Sigma-Aldrich, Inc., St. Louis, MO, USA) overnight at 4 °C, followed by two washes with PBS. The cells were then further incubated with Alexa flour 488 goat anti-mouse IgG (1:1000) (Abcam plc.) for 2 h at 37 °C. After the cells were washed twice with PBS, 4′,6-diamidino-2-phenylindole (DAPI) (2 µg/mL) was used for nuclear counterstaining. The immunofluorescence images were generated using a Nikon TE-2000S fluorescence microscope (Nikon Instruments Inc, Melville, NY, USA).

[4] = system: H460 cells; test: [3H]-mitoxantrone accumulation assay, H460; type: cell-based, human; conditions: parental H460 cells; compound 5 μM; Figure 6A
Procedure: (§3) To determine the accumulation of drugs on H460, H460/MX20, KB-3-1, and KB-C2 cells, the cells ([…] cells/well) were seeded in the 24-well plates and incubated at 37 °C with 5% CO2 [17]. After 12 h of incubation, a test compound (5 µM) was added and the plates were incubated at 37 °C for 2 h. Cells were then incubated with 0.01 µM [^3H]-MX or [^3H]-paclitaxel-containing medium for an additional 2 h at 37 °C, with or without a test compound. The cells were washed twice with ice-cold phosphate-buffered saline (PBS), trypsinized and lysed at the end of incubation. The radioactivity was measured using the Packard TRICARB1 1900A liquid scintillation analyzer.

[5] = system: BCRP-overexpressing H460/MX20 cells; test: [3H]-mitoxantrone accumulation assay, H460/MX20; type: cell-based, human
Procedure: as §3

[6] = system: BCRP protein in H460/MX20 cells; test: Western blot of BCRP expression in H460/MX20 cells; type: cell-based, human; conditions: H460/MX20 total cell lysate; Figure 7
Procedure: Cells in T25 flask were washed with ice-cold PBS. Lysis buffer (100 µL) was added into T25 flask. Using a cell scraper, scrape adherent cells were scraped off the flask and the cell suspension was transferred into a microcentrifuge tube (1.5 mL). Cells were agitated for 20 min at 4 °C and cell lysate was centrifuged mixture at 4 °C for 20 min at 12,000 rpm. The supernatant (lysate) was used for the gel electrophoresis. Equal amounts of total cell lysates (20 µg protein) were resolved by sodium dodecyl sulfate polyacrylamide gel electrophoresis (SDS-PAGE) and electrophoretically transferred onto polyvinylidene fluoride (PVDF) membranes. After incubation in a blocking solution (5% milk) for 2 h at room temperature, the membranes were incubated overnight with primary monoclonal antibodies against GAPDH (GA1R) (Invitrogen, Carlsbad, CA, USA) at 1:1000 dilution of BCRP protein (BXP 21) (Sigma-Aldrich, Inc., St. Louis, MO, USA) (1:1000) or P-gp (F4) (Sigma-Aldrich, Inc., St. Louis, MO, USA) at 4 °C, and were further incubated with horseradish […] (HRP)-conjugated secondary antibody (Thermo Fisher Scientific Inc., Waltham, MA, USA) at 1:1000 dilution for 2 h at room temperature. The protein antibody complex was detected using an enhanced chemiluminescence detection system. The grayscale ratio was analyzed by ImageJ and normalized by the grayscale of the ABC protein divided by that of GAPDH.

[7] = biological target: T1, BCRP ATPase (Homo sapiens, UniProt Q9UNQ0); test: Vanadate-sensitive BCRP ATPase assay; type: biochemical; conditions: membrane vesicles of High Five insect cells; Figure 10A,B
T1 construct: host or cells: High Five insect cells (membrane vesicles)
T1 sequence (Q9UNQ0 1-655): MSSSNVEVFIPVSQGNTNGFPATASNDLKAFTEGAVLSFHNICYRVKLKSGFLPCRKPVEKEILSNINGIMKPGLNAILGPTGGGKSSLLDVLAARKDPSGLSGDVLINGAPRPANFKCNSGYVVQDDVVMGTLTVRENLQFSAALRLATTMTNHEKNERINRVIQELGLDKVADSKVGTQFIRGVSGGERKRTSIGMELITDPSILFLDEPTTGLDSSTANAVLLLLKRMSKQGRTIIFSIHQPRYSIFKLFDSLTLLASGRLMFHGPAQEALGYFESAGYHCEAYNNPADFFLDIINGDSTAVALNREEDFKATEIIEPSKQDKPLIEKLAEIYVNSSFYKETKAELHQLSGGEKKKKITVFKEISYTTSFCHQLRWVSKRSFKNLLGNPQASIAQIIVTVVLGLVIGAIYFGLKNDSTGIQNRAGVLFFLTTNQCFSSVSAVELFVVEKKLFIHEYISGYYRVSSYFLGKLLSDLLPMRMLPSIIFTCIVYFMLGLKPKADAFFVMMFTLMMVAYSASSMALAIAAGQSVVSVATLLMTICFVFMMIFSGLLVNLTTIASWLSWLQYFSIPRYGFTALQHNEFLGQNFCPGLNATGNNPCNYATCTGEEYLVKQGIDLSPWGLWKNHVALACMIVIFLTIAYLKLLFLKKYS
Procedure: The vanadate (Vi)-sensitive ATPase activity of BCRP and P-gp in the membrane vesicles of High Five insect cells was measured as described previously. The results were presented as vanadate-sensitive ATPase activities by determining the difference in inorganic phosphate liberation measured in the presence and absence of sodium orthovanadate.

[8] = system: human lung cancer cell line H460; test: MTT reversal assay with mitoxantrone, parental H460 cells; type: cell-based; conditions: NCI-H460, H460, mitoxantrone alone, read-out: IC50 ± SD of mitoxantrone
Procedure: as §1, §2

[9] = system: BCRP-mediated MDR cell line H460/MX20; test: MTT reversal assay with mitoxantrone, BCRP-overexpressing H460/MX20 cells; type: cell-based; conditions: Homo sapiens, NCI-H460/MX20, H460/MX20, mitoxantrone alone, read-out: IC50 ± SD of mitoxantrone
Procedure: as §1, §2

Compound: CC(C)c1ccc(Nc2nc(-c3ccncc3)nc3ccccc23)cc1 [Compound 23, N-(4-Isopropylphenyl)-2-(pyridin-4-yl)quinazolin-4-amine]
Metabolic Stability, % compound remaining [1]: 75 ± 6%

Compound: COc1cc2c(c(OC)c1OC)-c1ccc(OC)c(=O)cc1[C@@H](NC(C)=O)CC2 [colchicine]
IC50 [2]: 7.34 µM

Compound: CCc1cccc(Nc2nc(-c3ccncc3)nc3ccccc23)c1 [Compound 24, N-(3-Ethylphenyl)-2-(pyridin-4-yl)quinazolin-4-amine]
Metabolic Stability, % compound remaining [1]: 91 ± 3%

Compound: [N-]=[N+]=Nc1ccc(Nc2nc(-c3ccncc3)nc3ccccc23)cc1 [Compound 33, N-(4-Azidophenyl)-2-(pyridin-4-yl)quinazolin-4-amine]
BCRP fluorescence on the membranes / intracellular localization of BCRP [3]: did not change the intracellular localization
accumulation of mitoxantrone [4]: slightly increase
accumulation of mitoxantrone after UV light activation ([5]; H460/MX20, compound followed by UV light activation): increased compared to the group without activation
accumulation of mitoxantrone ([5]; resistant H460/MX20 cells, compound 5 μM, Figure 6A): increased the accumulation
expression level of BCRP protein [6]: not altered
Metabolic Stability, % compound remaining [1]: 86 ± 11%
effect on Vi-sensitive BCRP ATPase activity (ATP hydrolysis) [7]: significantly stimulated

Compound: O=C1c2c(O)ccc(O)c2C(=O)c2c(NCCNCCO)ccc(NCCNCCO)c21 [Mitoxantrone]
IC50 ([8]; Table 1 series): 0.072 ± 0.009 µM
IC50 ([8]; Table 2 series): 0.154 ± 0.051 µM
IC50 ([9]; Table 1 series): 5.66 ± 0.29 µM
IC50 ([9]; Table 2 series): 6.5 ± 0.14 µM

Compound: COc1ccc2c3c([nH]c2c1)[C@H](CC(C)C)N1C(=O)[C@H](CCC(=O)OC(C)(C)C)NC(=O)[C@@H]1C3 [Ko143, reference compound]
Metabolic Stability, % compound remaining [1]: 41% and 41 ± 7%

Continued, values first:

melting point: 228 to 230 °C
Metabolic Stability, % compound remaining [1]: 87 ± 12%
Compound: CCc1ccc(Nc2nc(-c3ccncc3)nc3ccccc23)cc1 [Compound 4, N-(4-Ethylphenyl)-2-(pyridin-4-yl)quinazolin-4-amine]

melting point: 212 to 214 °C
Metabolic Stability, % compound remaining [1]: 80 ± 5%
Compound: CCCc1ccc(Nc2nc(-c3ccncc3)nc3ccccc23)cc1 [Compound 5, N-(4-Propylphenyl)-2-(pyridin-4-yl)quinazolin-4-amine]

Metabolic Stability, % compound remaining [1]: 83 ± 1%
Compound: COc1ccc(Nc2nc(-c3ccncc3)nc3ccccc23)cc1 [Compound 27, N-(4-Methoxyphenyl)-2-(pyridin-4-yl)quinazolin-4-amine]
